According to ChEMBL document CHEMBL1130359, “In vivo immunosuppressive activity of some cyclolignans” (Bioorg Med Chem Lett, 1997):
Converted amounts (≈) assume the structure as drawn.

Experiments:
Mus musculus [1] = assay: Tested in vivo for immunosuppressive activity in mouse using allogenic skin grafting technique(SG); weight at a dose of 1.50 mg/kg; type: functional; conditions: dose 1.5 mg/kg
Mus musculus [2] = assay: Tested in vivo for immunosuppressive activity in mouse using graft vs. Host rejection technique(GVHR); body weight at a dose of 15.0 mg/kg; type: functional
Mus musculus [3] = assay: Tested in vivo for immunosuppressive activity in mouse using graft vs. Host rejection technique(GVHR); body weight at a dose of 1.5 mg/kg; type: functional
Mus musculus [4] = assay: Tested in vivo for immunosuppressive activity in mouse using graft vs. Host rejection technique(GVHR); % suppression at a dose of 1.5 mg/kg; type: functional
Mus musculus [5] = assay: Tested in vivo for immunosuppressive activity in mouse using graft vs. Host rejection technique(GVHR); spleen index at a dose of 15.0 mg/kg; type: functional
Mus musculus [6] = assay: Tested in vivo for immunosuppressive activity in mouse using graft vs. Host rejection technique(GVHR); % suppression at a dose of 15.0 mg/kg.; type: functional
Mus musculus [7] = assay: Tested in vivo for immunosuppressive activity in mouse using allogenic skin grafting technique(SG); mean graft survival at a dose of 15.0 mg/kg.; type: functional
Mus musculus [8] = assay: Tested in vivo for immunosuppressive activity in mouse using graft vs. Host rejection technique(GVHR); weight at a dose of 15 mg/kg; type: functional
Mus musculus [9] = assay: Tested in vivo for immunosuppressive activity in mouse using graft vs. Host rejection technique(GVHR); spleen weight normalized to D8 body weight at a dose of 0.15 mg/kg; type: functional
Mus musculus [10] = assay: Tested in vivo for immunosuppressive activity in mouse using allogenic skin grafting technique(SG); graft survival relative to cyclophosphamide at a dose of 15.0 mg/kg; type: functional
Mus musculus [11] = assay: Tested in vivo for immunosuppressive activity in mouse using allogenic skin grafting technique(SG); graft survival relative to cyclophosphamide at a dose of 1.5 mg/kg; type: functional
Mus musculus [12] = assay: Tested in vivo for immunosuppressive activity in mouse using graft vs. Host rejection technique(GVHR); spleen index at a dose of 1.5 mg/kg; type: functional
[13] = Tested in vitro for cytotoxicity against […](LcV) in cells; type: functional
[14] = Non-cytotoxic IMS activity (ratio LcV/MLR) was determined; type: functional
Mus musculus [15] = assay: Tested in vivo for immunosuppressive activity in mouse using graft vs. Host rejection technique(GVHR); spleen index at a dose of 0.15 mg/kg; type: functional
Mus musculus [16] = assay: Tested in vivo for immunosuppressive activity in mouse using graft vs. Host rejection technique(GVHR); spleen weight normalized to D8 body weight at a dose of 1.5 mg/kg; type: functional
Mus musculus [17] = assay: Tested in vivo for immunosuppressive activity in mouse using allogenic skin grafting technique(SG); mean graft survival at a dose of 0.15 mg/kg; type: functional
Mus musculus [18] = assay: Tested in vivo for immunosuppressive activity in mouse using graft vs. Host rejection technique(GVHR);% suppression at a dose of 0.15 mg/kg; type: functional
Mus musculus [19] = species on record: Mus musculus; assay: Tested for immunosuppressive activity in mouse using allogenic MLR method; type: functional, organism-based
Mus musculus [20] = assay: Tested in vivo for immunosuppressive activity in mouse using allogenic skin grafting technique(SG); graft survival relative to cyclophosphamide at a dose of 0.15 mg/kg; type: functional
Mus musculus [21] = assay: Tested in vivo for immunosuppressive activity in mouse using graft vs. Host rejection technique(GVHR); weight change at a dose of 15.0 mg/kg; type: functional
Mus musculus [22] = assay: Tested in vivo for immunosuppressive activity in mouse using allogenic skin grafting technique(SG); weight at a dose of 15 mg/kg; type: functional
Mus musculus [23] = assay: Tested in vivo for immunosuppressive activity in mouse using allogenic skin grafting technique(SG); weight lost at a dose of 0.15 mg/kg; type: functional
Mus musculus [24] = assay: Tested in vivo for immunosuppressive activity in mouse using allogenic skin grafting technique(SG); weight at a dose of 0.15 mg/kg; type: functional
Mus musculus [25] = assay: Tested in vivo for immunosuppressive activity in mouse using allogenic skin grafting technique(SG); weight lost at a dose of 1.50 mg/kg; type: functional; conditions: dose 1.5 mg/kg
Mus musculus [26] = assay: Tested in vivo for immunosuppressive activity in mouse using graft vs. Host rejection technique(GVHR); body weight at a dose of 0.15 mg/kg.; type: functional
Mus musculus [27] = assay: Tested in vivo for immunosuppressive activity in mouse using graft vs. Host rejection technique(GVHR); weight change at a dose of 1.5 mg/kg.; type: functional
Mus musculus [28] = assay: Tested in vivo for immunosuppressive activity in mouse using allogenic skin grafting technique(SG); mean graft survival at a dose of 1.5 mg/kg; type: functional
Mus musculus [29] = assay: Tested in vivo for immunosuppressive activity in mouse using graft vs. Host rejection technique(GVHR); weight change at a dose of 0.15 mg/kg; type: functional
Mus musculus [30] = assay: Tested in vivo for immunosuppressive activity in mouse using graft vs. Host rejection technique(GVHR); spleen weight normalized to D8 body weight at a dose of 15.0 mg/kg; type: functional

Work on `COc1cc([C@@H]2c3cc(O)c(O)cc3[C@H](O)[C@H]3COC(=O)[C@H]23)cc(OC)c1OC` [6,7-O,O-DEMETHYLENEPODOPHYLLOTOXIN] yielded a Body weight (Mus musculus [1]) of 18.5 g, a Body weight (Mus musculus [2]) of 16.3 g and a Body weight (Mus musculus [3]) of 16.8 g. The Activity (Mus musculus [4]) was 85%, the SI (Mus musculus [5]) was 1.15 and the Activity (Mus musculus [6]) was 44%. The Mean graft survival (Mus musculus [7]) was 10.7 days, the Body weight (Mus musculus [8]) was 17.8 g and the Spleen weight (Mus musculus [9]) was 4.1 g. The graft survival (Mus musculus [10]) was 1.09 days, the graft survival (Mus musculus [11]) was 1.28 days and the SI (Mus musculus [12]) was 1.04. The Cytotoxicity [13] was >27.5 µg/mL, the Ratio [14] was >4885 and the SI (Mus musculus [15]) was 0.82. It also gave a Spleen weight (Mus musculus [16]) of 5.2 g, a Mean graft survival (Mus musculus [17]) of 10 days and an Activity (Mus musculus [18]) of 167%. For the same compound, the IC50 (Mus musculus [19]) was 5.63 ng/mL (≈ 0.014 µM), the graft survival (Mus musculus [20]) was 1.02 days and the Weight change (Mus musculus [21]) was 1.8%. It also gave a Body weight (Mus musculus [22]) of 1.6 g, a Body weight (Mus musculus [23]) of 0.7 g and a Body weight (Mus musculus [24]) of 18.7 g. For the same compound, the Body weight (Mus musculus [25]) was 1 g, the Body weight (Mus musculus [26]) was 16.5 g and the Weight change (Mus musculus [27]) was 2.9%. The Mean graft survival (Mus musculus [28]) was 12.5 days, the Weight change (Mus musculus [29]) was -1.8% and the Spleen weight (Mus musculus [30]) was 5.75 g.
